Counter-ions that a name gives are not always drawn. Like-named read-outs stand apart in the source and are kept apart here.
Legend:
Format in all cases: biochemical
[1] = target: T1, α-N-Acetylgalactosaminidase (Chicken liver) (Gallus gallus, UniProt Q90744); assay: α-N-Acetylgalactosaminidase (chicken liver) inhibition
T1 construct: purchased Sigma-Aldrich Chemical Co; host or cells: chicken liver
T1 sequence (Q90744 1-405): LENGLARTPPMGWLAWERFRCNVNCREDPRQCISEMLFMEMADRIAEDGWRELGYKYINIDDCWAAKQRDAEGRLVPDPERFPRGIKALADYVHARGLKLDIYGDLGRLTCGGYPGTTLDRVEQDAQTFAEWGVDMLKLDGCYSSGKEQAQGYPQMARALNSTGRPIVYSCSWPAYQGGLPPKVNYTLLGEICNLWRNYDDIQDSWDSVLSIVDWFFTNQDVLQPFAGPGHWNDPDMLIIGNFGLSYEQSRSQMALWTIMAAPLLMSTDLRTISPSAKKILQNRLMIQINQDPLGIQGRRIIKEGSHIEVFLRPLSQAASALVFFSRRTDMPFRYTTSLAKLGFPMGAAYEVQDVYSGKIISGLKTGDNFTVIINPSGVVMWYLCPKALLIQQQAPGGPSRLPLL
Experimental: (§1) With rat intestinal maltase as an exception, other enzymes were purchased from Sigma-Aldrich Chemical Co. (St. Louis, MO, USA). Brush border membranes prepared from rat small intestine according to the method of Kessler et al. were assayed at pH 6.8 for rat intestinal maltase using maltose. The released D-glucose was determined colorimetrically using the Glucose CII-test Wako (Wako Pure Chemical Ind.; Osaka, Japan). Other glycosidase activities were determined using an appropriate p-nitrophenyl glycoside as substrate in a buffer solution at the optimal pH value of each enzyme. The reaction was stopped by adding 400 mM Na2CO3. The released p-nitrophenol was measured spectrometrically at 400 nm.

[2] = target: T2, α,α-Trehalase (Porcine kidney) (Sus scrofa, UniProt I3LIR5); assay: α,α-Trehalase (porcine kidney) inhibition
T2 construct: purchased Sigma-Aldrich Chemical Co; host or cells: porcine kidney
T2 sequence (I3LIR5 24-583): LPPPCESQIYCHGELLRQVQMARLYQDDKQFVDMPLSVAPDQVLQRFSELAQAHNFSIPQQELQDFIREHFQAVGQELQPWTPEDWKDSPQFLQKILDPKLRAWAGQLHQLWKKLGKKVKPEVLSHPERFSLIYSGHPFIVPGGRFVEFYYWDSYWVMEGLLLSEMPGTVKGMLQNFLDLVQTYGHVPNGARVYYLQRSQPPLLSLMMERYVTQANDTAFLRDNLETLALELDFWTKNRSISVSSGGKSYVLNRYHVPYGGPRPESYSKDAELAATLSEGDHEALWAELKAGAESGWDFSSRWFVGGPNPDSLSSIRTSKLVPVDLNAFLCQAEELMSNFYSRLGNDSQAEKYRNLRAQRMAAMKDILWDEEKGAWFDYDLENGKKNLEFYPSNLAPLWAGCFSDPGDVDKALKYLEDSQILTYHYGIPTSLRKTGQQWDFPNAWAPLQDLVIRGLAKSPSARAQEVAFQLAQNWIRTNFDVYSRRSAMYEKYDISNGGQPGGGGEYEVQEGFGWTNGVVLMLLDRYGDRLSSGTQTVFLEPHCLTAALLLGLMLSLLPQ
Experimental: as §1

Rat intestinal maltase = Rat intestinal maltase inhibition; conditions: α-Glucosidase
Experimental: as §1

[3] = target: T3, α-Mannosidase (Jack bean) (Canavalia ensiformis, UniProt C0HJB3); assay: α-Mannosidase (Jack bean) inhibition
T3 construct: purchased Sigma-Aldrich Chemical Co
T3 sequence (C0HJB3 1-981): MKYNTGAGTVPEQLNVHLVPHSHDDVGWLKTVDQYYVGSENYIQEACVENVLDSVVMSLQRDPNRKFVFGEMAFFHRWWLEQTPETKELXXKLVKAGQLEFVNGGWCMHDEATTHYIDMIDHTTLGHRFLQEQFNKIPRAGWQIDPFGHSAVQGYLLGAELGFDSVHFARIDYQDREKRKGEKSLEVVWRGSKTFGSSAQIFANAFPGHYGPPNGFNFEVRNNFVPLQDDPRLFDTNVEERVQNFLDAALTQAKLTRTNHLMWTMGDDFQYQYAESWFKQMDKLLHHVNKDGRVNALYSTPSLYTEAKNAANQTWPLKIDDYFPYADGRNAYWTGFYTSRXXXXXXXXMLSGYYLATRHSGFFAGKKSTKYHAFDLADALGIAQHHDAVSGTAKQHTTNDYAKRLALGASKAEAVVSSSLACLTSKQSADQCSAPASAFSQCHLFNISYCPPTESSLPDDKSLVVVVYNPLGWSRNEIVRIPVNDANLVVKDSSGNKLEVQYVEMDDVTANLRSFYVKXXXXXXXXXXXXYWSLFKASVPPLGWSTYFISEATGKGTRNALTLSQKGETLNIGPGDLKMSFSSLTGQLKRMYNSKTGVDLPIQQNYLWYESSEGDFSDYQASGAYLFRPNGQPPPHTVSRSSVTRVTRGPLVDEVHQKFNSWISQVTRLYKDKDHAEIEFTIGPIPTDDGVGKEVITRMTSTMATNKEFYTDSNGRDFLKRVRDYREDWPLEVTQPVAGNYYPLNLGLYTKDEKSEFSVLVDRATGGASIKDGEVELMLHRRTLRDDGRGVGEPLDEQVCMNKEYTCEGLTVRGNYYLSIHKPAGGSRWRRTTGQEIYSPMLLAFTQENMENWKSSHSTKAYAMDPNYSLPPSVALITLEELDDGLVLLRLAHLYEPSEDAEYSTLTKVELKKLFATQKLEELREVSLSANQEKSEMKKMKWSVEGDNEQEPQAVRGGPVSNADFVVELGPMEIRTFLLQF
Experimental: as §1

[4] = 1000 μM, read-out: Inhibition % at 1000 μM

SMILES | inhibition at 1000 µM [1, 4] | inhibition at 1000 µM ([1]; read-out: IC50) | inhibition at 1000 µM [2, 4] | inhibition at 1000 µM ([2]; read-out: IC50) | IC50 (Rat intestinal maltase; read-out: IC50) | inhibition at 1000 µM [3, 4] | inhibition at 1000 µM ([3]; read-out: IC50) | IC50 (Rat intestinal maltase) | Inhibition % at 1000 μM (Rat intestinal maltase) | IC50 [1] | IC50 [3]
CC(=O)NC[C@H]1N[C@H](CO)[C@@H](O)[C@@H]1O [4·HCl, 1-N-acetylamino-2,5-imino-1,2,5-trideoxy-D-mannitol hydrochloride] | 3.3% | < 50% | 20.3% | < 50% | 211 µM | 0% | < 50% |  |  |  | 
CC(=O)NC[C@@H]1N[C@@H](CO)[C@H](O)[C@H]1O [A-10, 1-N-acetylamino-2,5-imino-1,2,5-trideoxy-L-mannitol hydrochloride] | 0% | < 50% | 4.3% | < 50% | 92 µM | 0% | < 50% |  |  |  | 
CC(=O)NC[C@@H]1N[C@@H](CO)[C@@H](O)[C@H]1O [C-10, 1-N-acetylamino-2,5-imino-1,2,5-trideoxy-L-altritol hydrochloride] | 6.1% | < 50% | 0% | < 50% |  | 0.4% | < 50% | NI (No Inhibition (less than 50% at 1000 μM)) | 35.4% |  | 
CC(=O)NC[C@H]1N[C@H](CO)[C@H](O)[C@@H]1O [D-10, 1-N-acetylamino-2,5-imino-1,2,5-trideoxy-D-altritol hydrochloride] |  |  | 0% | < 50% |  |  |  | NI (9.24%) (No Inhibition (less than 50% at 1000 μM)) |  | 65.3 µM | 205 µM
CC(=O)NC[C@H]1N[C@@H](CO)[C@@H](O)[C@@H]1O [E-10a, 1-N-acetylamino-2,5-imino-1,2,5-trideoxy-D-glucitol hydrochloride] | 1.4% | < 50% | 5.6% | < 50% |  | 0.7% | < 50% | NI (No Inhibition (less than 50% at 1000 μM)) | 12.7% |  | 
CC(=O)NC[C@@H]1N[C@@H](CO)[C@@H](O)[C@@H]1O [E-10b, 1-N-acetylamino-2,5-imino-1,2,5-trideoxy-L-iditol hydrochloride] | 0.5% | < 50% | 0% | < 50% |  | 3.8% | < 50% | NI (No Inhibition (less than 50% at 1000 μM)) | 0% |  | 
CC(=O)NC[C@@H]1N[C@H](CO)[C@H](O)[C@H]1O [F-10a, 1-N-acetylamino-2,5-imino-1,2,5-trideoxy-L-glucitol hydrochloride] | 0% | < 50% | 3% | < 50% |  | 0% | < 50% | NI (No Inhibition (less than 50% at 1000 μM)) | 14.6% |  | 
CC(=O)NC[C@H]1N[C@H](CO)[C@H](O)[C@H]1O [F-10b, 1-N-acetylamino-2,5-imino-1,2,5-trideoxy-D-iditol hydrochloride] | 2.3% | < 50% | 0% | < 50% |  | 1.6% | < 50% | NI (No Inhibition (less than 50% at 1000 μM)) | 12.7% |  | 
CC(=O)NC[C@H]1N[C@@H](CO)[C@H](O)[C@@H]1O [G-10, 1-N-acetylamino-2,5-imino-1,2,5-trideoxy-D-allitol hydrochloride] | 2.3% | < 50% | 5.6% | < 50% |  | 4% | < 50% | NI (No Inhibition (less than 50% at 1000 μM)) | 16.0% |  | 
CC(=O)NC[C@@H]1N[C@H](CO)[C@@H](O)[C@H]1O [H-10, 1-N-acetylamino-2,5-imino-1,2,5-trideoxy-L-allitol hydrochloride] | 6.1% | < 50% | 40.9% | < 50% |  | 9.5% | < 50% | NI (No Inhibition (less than 50% at 1000 μM)) | 13.6% |  | 

Source: paper PMC7180638, “Synthesis of Pyrrolidine Monocyclic Analogues of Pochonicine and Its Stereoisomers: Pursuit of Simplified Structures and Potent β-N-Acetylhexosaminidase Inhibition” (Molecules, 2020)
